Measured values published in patent US11021481B2, “Substituted isoindolin-1-ones and 2,3-dihydro-1h-pyrrolo[3,4-c]pyridin-1-ones as HPK1 antagonists” (Nimbus Saturn, Inc., priority 2019, dated 2021).

Molecular target: HPK1 (Homo sapiens (Human), UniProt Q92918)
Test: HPK1 biochemical enzyme assay (microfluidic mobility shift assay)
Conditions: 1.5 nM HPK1, ATP 1 mM final, 30 min preincubation, 60 min at RT, Caliper EZ Reader; read-out: HPK1 1000UMATP caliper IC50
Method in brief: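 Mobility shift readout of HPK1 activity after a 60 min RT reaction with 1 mM ATP, 1 μM substrate and 5 mM MgCl2. Enzyme/substrate mix was first exposed to compounds for 30 min, using ten-point curves topping at 3 μM final.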

HPK1, sequence (Q92918 whole entry): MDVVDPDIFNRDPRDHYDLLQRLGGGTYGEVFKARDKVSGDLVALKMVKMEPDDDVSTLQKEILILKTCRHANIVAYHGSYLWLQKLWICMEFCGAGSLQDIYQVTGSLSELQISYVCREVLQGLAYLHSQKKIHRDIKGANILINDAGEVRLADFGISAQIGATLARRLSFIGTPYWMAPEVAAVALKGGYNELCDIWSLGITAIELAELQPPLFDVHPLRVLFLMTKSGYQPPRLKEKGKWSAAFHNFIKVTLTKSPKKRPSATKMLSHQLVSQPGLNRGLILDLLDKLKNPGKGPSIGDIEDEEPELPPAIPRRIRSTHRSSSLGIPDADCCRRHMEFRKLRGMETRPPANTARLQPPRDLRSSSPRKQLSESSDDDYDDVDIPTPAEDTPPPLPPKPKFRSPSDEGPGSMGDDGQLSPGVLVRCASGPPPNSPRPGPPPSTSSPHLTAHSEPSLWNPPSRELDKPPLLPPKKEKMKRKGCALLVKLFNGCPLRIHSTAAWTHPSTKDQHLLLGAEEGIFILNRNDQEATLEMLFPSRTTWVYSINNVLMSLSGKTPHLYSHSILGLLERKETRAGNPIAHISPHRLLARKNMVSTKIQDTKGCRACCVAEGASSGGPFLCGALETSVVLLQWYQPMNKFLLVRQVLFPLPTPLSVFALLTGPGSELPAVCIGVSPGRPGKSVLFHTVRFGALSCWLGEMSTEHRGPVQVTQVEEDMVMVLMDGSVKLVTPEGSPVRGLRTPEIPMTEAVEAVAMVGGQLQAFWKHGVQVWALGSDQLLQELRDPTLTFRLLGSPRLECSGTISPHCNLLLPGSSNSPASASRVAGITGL

Compound	IC50 [nM]
CN(C)CCN1CCC(c2ccc(Nc3cnc(-c4ccnc5c4ccn5C)c4c3C(=O)NC4)nc2)CC1=O (stereo not shown) [I-386, 7-((5-(1-(2-(dimethylami-no)ethyl)-2-oxopiperidin-4-yl)pyridin-2-yl)amino)-4-(1-methyl-1H-pyrrolo[2,3-b]pyridin-4-yl)-2,3-dihydro-1H-pyrrolo[3,4-c]pyridin-1-one]	< 100
Cc1ccn2c(-c3ncc(Nc4ccc(N5CCOCC5)cn4)c4c3CNC4=O)cnc2c1 [I-163]	100 to 1000
CN1CCC(C)(c2ccc(Nc3ccc(-c4ccnc5c4ccn5C)c4c3C(=O)NC4)nc2)CC1 [I-275, 7-((5-(1,4-dimethyl-piperidin-4-yl)pyridin-2-yl)amino)-4-(1-methyl-1H-pyrrolo[2,3-b]pyridin-4-yl)isoindolin-1-one]	< 100
Cn1ccc2c(-c3ncc(Nc4ccc(C5(O)CCOCC5)cn4)c4c3CNC4=O)ccnc21 [I-427]	< 100
O=C1NCc2c(-c3cnc4cc(F)ccn34)ccc(Nc3ccc(C4CCOC4)c(CO)n3)c21 (stereo not shown) [I-771, 4-(7-fluoroimidazo [1,2-a]pyridin-3-yl)-7-((6-(hydroxymeth-yl]-5-(tetrahydrofuran-3-yl)pyridin-2-yl)amino)isoin-dolin-1-one]	< 100
CNCc1nc(Nc2cnc(-c3ccnc4c3ccn4C)c3c2C(=O)NC3)ccc1[C@H]1CCOC1 (single isomer, unassigned) [I-814]	< 100
CN(C)C(C)(C)C1CCCN(c2ccc(Nc3ccc(-c4cnc5cc(F)ccn45)c4c3C(=O)NC4)nc2)C1 (stereo in doubt) [I-607, (S)-7-((5-(3-(2-(dimethylami-no)propan-2-yl)piperidin-1-yl)pyridin-2-yl)amino)-4-(7-fluoroimidazo [1,2-a]pyridin-3-yl)isoindolin-1-one]	< 100
Cc1cccn2c(-c3ncc(Nc4ccc(N5CCC[C@H](C(C)(C)O)C5)cn4)c4c3CNC4=O)cnc12 [I-241, 7-[[5-[(3S)-3-(1-hydroxy-1-methyl-ethyl)-1-piperidyl]-2-pyridyl]-amino]-4-(8-methylimidazo [1,2-a]pyridin-3-yl)-2,3-dihydropyrrolo [3,4-c]pyridin-1-one]	< 100
CN1CCN(c2ccc(Nc3ccc(-c4cnc5cnccn45)c4c3C(=O)NC4)nc2)CC1 [I-76, 4-imidazo[1,2-a]pyrazin-3-yl-7-[[5-(4-methylpiperazin-1-yl)-2-pyridyl]amino] isoindolin-1-one]	< 100
O=C1NCc2c(-c3c[nH]c4ccccc34)ncc(Nc3ccc(N4CCC(F)(F)CC4)cn3)c21 [I-12, 7-[[5-(4,4-difluoro-1-piperidyl)-2-pyridyl]amino]-4-(1H-indol-3-yl)-2,3-dihydropyrrolo [3,4-c]pyridin-1-one]	> 1000
4-(6- methylpyrazol o[1,5-a]pyridin-3- yl)-7-[[5- (morpholino- methyl)-2- pyridyl]amino] isoindolin-1-one [I-469]	< 100
CN(C)Cc1nc(Nc2cnc(-c3ccnc4c3ccn4C)c3c2C(=O)NC3)ccc1O[C@H]1CCOC1 [I-806, (S)-7-((6-((dimetlnlamino)-methyl)-5-((tetrahydrofur-an-3-yl)oxy)pyridin-2-yl)amino)-4-(1-methyl-1H-pyrrolo[2,3-b]pyridin-4-yl)-2,3-dihydro-1H-pyrrolo[3,4-c]pyridin-1-one]	< 100
Cc1ccn2c(-c3ccc(Nc4ccc(N5CCC[C@@H](O)C5)cn4)c4c3CNC4=O)cnc2c1 [I-172, 7-[[5-[(3R)-3-hydroxy-1-piperipyl]-2-pyridyl]amino]-4-(7-methylimidazo [1,2-a]pyridin-3-yl)isoindolin-1-one]	< 100

Results, then the compound that gave them:

IC50 [nM]	Compound
< 100	O=C1NCc2c(-c3cnc4cnccn34)ccc(Nc3ccc(N4C[C@H]5COC[C@H]5C4)cn3)c21 [I-318, 4-(imidazo[1,2-a]pyrazin-3-yl)-7-((5-((3aR,6aS)-tetrahydro-1H-furo[3,4-c]pyrrol-5(3H)-yl)pyridin-2-yl)amino)isoin-dolin-1-one]
> 1000	CN1CC(c2cccc(Nc3cnc(-c4ccnc5c4ccn5C)c4c3C(=O)NC4)n2)C1 [I-432, 4-(1-methyl-1H-pyrrolo[2,3-b]pyridin-4-yl)-7-((6-(1-methylazetidin-3-yl)pyridin-2-yl)amino)-2,3-dihydro-1H-pyrrolo[3,4-c]pyridin-1-one]
< 100	CN(C)CCN(C)c1cccc(Nc2cnc(-c3ccnc4c3ccn4C)c3c2C(=O)NC3)n1 [I-246, 7-[[6-[2-(dimethylami-no)ethyl-methyl-amino]-2-pyridyl]-amino]-4-(1-methylpyrrolo [2,3-b]pyridin-4-yl)-2,3-dihydropyrrolo [3,4-c]pyridin-1-one]
100 to 1000	Cc1cc(Nc2cnc(-c3ccnc4c3ccn4C)c3c2C(=O)NC3)nc(N2CC[C@@H]3CN(C)C[C@@H]32)c1 [I-644, 4-(1-methyl-1H-pyrrolo[2,3-b]pyridin-4-yl)-7-((4-methyl-6-((3aR,6aR)-5-methylhexahydropyrrolo[3,4-b]pyrrol-1(2H)-yl)pyridin-2-yl)amino)-2,3-dihydro-1H-pyrrolo[3,4-c]pyridin-1-one]
100 to 1000	Cn1ccc2c(-c3ncc(Nc4ccnc(N5CC[C@@H]6CNC[C@@H]65)n4)c4c3CNC4=O)ccnc21 [I-685, 7-((2-((3aR,6aR)-hexahydro-pyrrolo[3,4-b]pyrrol-1(2H)-yl)pyrimidin-4-yl)amino)-4-(1-methyl-1H-pyrrolo[2,3-b]pyridin-4-yl)-2,3-dihydro-1H-pyrrolo[3,4-c]pyridin-1-one]
< 100	Cn1ccc2c(-c3ccc(Nc4ccc(N5CCC(O)CC5)cn4)c4c3CNC4=O)ccnc21 [I-75, 7-[[5-(4-hydroxy-1-piperidyl)-2-pyridyl]amino]-4-(1-methylpyrrolo [2,3-b]pyridin-4-yl)isoindolin-1-one]
< 100	O=C1NCc2c(-c3cnn4ccccc34)ccc(Nc3ccc(N4CCC(O)CC4)cn3)c21 [I-131, 7-[[5-(4-hydroxy-1-piperidyl)-2-pyridyl]amino]-4-pyrazolo[1,5-a]pyridin-3-yl-isoindolin-1-one]
100 to 1000	CN1CCN(c2ccc(Nc3ccc(-c4cn(C)c5ncccc45)c4c3C(=O)NC4)nc2)CC1 [I-22, 7-[[5-(4-methylpiperazin-1-yl)-2-pyridyl]amino]-4-(1-methylpyrrolo [2,3-b]pyridin-3-yl)-isoindolin-1-one]
100 to 1000	Cn1ccc2c(-c3ncc(Nc4cccc(C5CCNCC5)n4)c4c3CNC4=O)ccnc21 [I-390, 4-(1-methyl-1H-pyrrolo[2,3-b]pyridin-4-yl)-7-((6-(piperidin-4-yl)pyridin-2-yl)amino)-2,3-dihydro-1H-pyrrolo[3,4-c]pyridin-1-one]
< 100	O=C1NCc2c(-c3cnc4cc(F)ccn34)ccc(Nc3ccc(CN4CCOCC4)cn3)c21 [I-238, 4-(7-fluoroimidazo [1,2-a]pyridin-3-yl)-7-[[5-(morpholino-methyl)-2-pyripyl]amino] isoindolin-1-one]
100 to 1000	Cn1ccc2c(-c3ncc(Nc4cccc(N5CCCNCC5)n4)c4c3CNC4=O)ccnc21 [I-240, 7-[[6-(1,4-diazepan-1-yl)-2-pyridyl]amino]-4-(1-methylpyrrolo [2,3-b]pyridin-4-yl)-2,3-dihydropyrrolo [3,4-c]pyridin-1-one]
< 100	COC[C@H]1CN(c2ccc(Nc3ccc(-c4cnc5c(F)c(C)ccn45)c4c3C(=O)NC4)nc2)CCO1 [I-580, (R)-4-(8-fluoro-7-methylimidazo [1,2-a]pyridin-3-yl)-7-((5-(2-(methoxymeth-yl)morpho-lino)pyridin-2-yl)amino)isoin-dolin-1-one]
